Results from patent publication US20070026478A1, “Hemiasterlin affinity probes and their uses” (WYETH, priority 2002, published 2007).
“And” between values parts separate entries of the source, which are not always exact repeats. Equal entries are not always repeated. Where two headings read alike, the source gives them in different places. Marks after values point to notes of the source that are not given here.

How the values were obtained:
bovine brain tubulin [1] = molecular target: T1, bovine brain tubulin (Bos taurus, UniProt P81947+Q6B856); experiment: Competition of [3H]-Probe 1 photolabeling of tubulin; type: binding; conditions: for Probe 1 photolabeling of tubulin (% of no-competitor control): control (no competitor) = 100; for IC50: read-out: IC50 for inhibition of Probe 1 photolabeling of tubulin
T1 construct: MAP-rich bovine brain tubulin (99% purity), Hela cell tubulin (90% purity); purchased Cytoskeleton (Denver, Colo.); host or cells: bovine brain
Description: (§1) Alternatively, a cytosolic preparation of KB-3-1 cell lysates (50 μg) or KB-3-1 cells (40,000 cells) were used in the place of purified tubulin above. The supernatant of mechanically disrupted cells centrifuged at 100,000×g was used as a cytosolic preparation. K-3-1 cells were prepared by growing KB-3-1 cells in a 96-well plate and rinsing them with serum free medium.
If whole cells were used, Laemmli sample buffer was then added to lyse the cells.
Low grade SDS (Sigma, catalog No. L5750) was used in the running buffer, when needed, to allow separation of α and β-tubulin subunits. Gels were fixed, stained with Coomassie blue from BioRad (Hercules, Calif.) to ensure equal loading of protein, and sliced. […] Alternatively, gels were incubated with EN^3HANCE according to the manufacturer's instructions (Life Sciences Products, Inc.), washed, and dried prior to exposure of the gel to Biomax MX film from Kodak (Rochester, N.Y.) for fluorography.
After incubation for 30 minutes at 37° C., samples were irradiated with 360 nm UV light for 30 minutes and separated by SDS-PAGE. Gels were exposed to film using fluorographic techniques.
In particular, photolabeling experiments were performed as described in section 7.1.5 above, at both room temperature and at 37° C.

α-tubulin = molecular target: T2, α-tubulin (Bos taurus, UniProt P81947+Q6B856); experiment: Subtilisin digestion of tubulin after incubation with various compounds; type: biochemical, bovine; conditions: 50 μM drug, subtilisin up to 60 min at room temperature
T2 construct: MAP-rich bovine brain tubulin (99% purity), Hela cell tubulin (90% purity); purchased Cytoskeleton (Denver, Colo.); host or cells: bovine brain
Description: Tubulin (5 μg) was incubated with 50 μM drug at room temperature for 25 minutes and then digested under native conditions with subtilisin (0.05 μg) for 0, 5, 10, 15, 30 and 60 min at room temperature. Enzymatic digestion was stopped with 1 mM PMSF and samples were resolved by SDS-PAGE under conditions that allowed separation of α- and β-tubulin subunits. Gels were then fixed and stained with Coomassie blue.

tubulin [2] = molecular target: T3, tubulin (Bos taurus, UniProt P81947+Q6B856); experiment: Competition of [3H]-Probe 2 photolabeling of tubulin; type: binding, bovine
T3 construct: MAP-rich bovine brain tubulin (99% purity), Hela cell tubulin (90% purity); purchased Cytoskeleton (Denver, Colo.); host or cells: bovine brain
Description: as §1
Competition binding experiments were performed as described in Section 7.1.5. […] Samples were then irradiated for 2 hours at 4° C. and evaluated by SDS-PAGE and fluorography.

tubulin [3] = molecular target: T3, tubulin; experiment: Separation of polymerized and free tubulin by centrifugation; type: biochemical, bovine; conditions: 50 μM drug, centrifugation at 10,000 g and 100,000 g
Description: Tubulin (5 μg) was incubated with 50 μM drug at room temperature for 25 minutes and then centrifuged at either 10,000 g for 15 minutes in a tabletop microfuge or at 100,000 g for 15 minutes in an airfuge. The supernatant was carefully removed to a fresh tube to obtain free tubulin and the pellet was solubilized in SDS-PAGE sample buffer.

bovine brain tubulin [4] = molecular target: T1, bovine brain tubulin; experiment: Reversible binding affinity assay (tubulin fluorescence)
Description: The affinity of both HTI-286 and of non-radiolabled Probe 1 and Probe 2, to bovine brain tubulin was determined by previously published methods (Krishnamurthy et al., Biochem., submitted). Briefly, 5 mg/mL […] tubulin prepared in PEM buffer was pre-incubated with buffer or varying concentrations of test agents in individual quartz cuvettes. The intrinsic tryptophan fluorescence of tubulin (excitation at 560 nm and maximal emission at 580 nm) was measured after pre-incubation for 90 minutes. The change in fluorescence intensity at 580 nm in the presence of compound was fitted to a quadratic equation to obtain apparent dissociation constants (KD) of the test agents.

KB cells = experiment: Cell proliferation assay in tissue culture (SRB); type: cell-based
Description: Cell proliferation studies were performed according to procedures described by Loganzo et al. (Cancer Res. 2003, 63:1838-1845). Briefly, KB cells were plated in 96-well plates in 100 μL media at densities pre-determined to produce 60-90% confluence at the time of analysis. Compounds, which were serially diluted into media as 2× stocks, were added to cells in duplicate. After 72 hours of incubation, cell survival was assayed by the SRB assay as described (Rabindran et al., C. Cancer Res. 1998, 58:5850-5858). IC50 values (i.e. the concentration of drug needed to inhibit cell growth by 50%) were used to evaluate drug potency.

bovine MAP-rich tubulin = molecular target: T4, bovine MAP-rich tubulin (Bos taurus, UniProt P81947+Q6B856); experiment: Tubulin polymerization assay in a cell-free system; type: biochemical; conditions: 0.3 μM compound
T4 construct: MAP-rich bovine brain tubulin (99% purity), Hela cell tubulin (90% purity); purchased Cytoskeleton (Denver, Colo.); host or cells: bovine brain
Description: In vitro tubulin polymerization assays were performed according to procedures that have been described elsewhere (Loganzo et al., Cancer Res. 2003, 63:1838-1845). Briefly, bovine MAP-rich tubulin (final concentration 1.5 mg/mL) was dissolved in cold PEM buffer containing 1 mM GTP (GPEM) and centrifuged at 12,000×g for 10 minutes at 4° C. The tubulin solution (100 μL/well) was added rapidly to wells of a low-volume, 96-well plate already containing duplicate aliquots (10 μL) of test compounds in GPEM. Final compound concentrations were 0.3 μM. Control wells contained the same final concentration of DMSO (0.3%). After initiation of the reaction, absorbance at 340 nm was measured every minute for 60 minutes at 24° C. using a SpectraMax Plus plate reader (Molecular Devices, Sunnyvale, Calif.). An increase in absorbance over time indicated an increase in turbidity resulting from tubulin polymerization.

[5] = molecular target: microtubule associated protein (MAP)-rich bovine brain tubulin (bovine) (UniProt P81947); experiment: 100 µM HTI-286 against 0.25 µM [3H]-Probe 2 photolabeling of tubulin, room temperature
[6] = molecular target: microtubule associated protein (MAP)-rich bovine brain tubulin (bovine) (UniProt P81947); experiment: 100 µM HTI-286 against 0.25 µM [3H]-Probe 1 photolabeling of tubulin, room temperature
[7] = molecular target: microtubule associated protein (MAP)-rich bovine brain tubulin (bovine) (UniProt P81947); experiment: 100 µM HTI-286 against 0.25 µM [3H]-Probe 1 photolabeling of tubulin, 37° C.
[8] = molecular target: microtubule associated protein (MAP)-rich bovine brain tubulin (bovine) (UniProt P81947); experiment: reversible binding to bovine brain tubulin (range given in Table 1)
[9] = molecular target: α-tubulin of bovine brain tubulin (bovine) (UniProt P81947); experiment: 1 mM HTI-286 against 2.5 µM [3H]-Probe 1 photolabeling, fluorography
[10] = molecular target: microtubule associated protein (MAP)-rich bovine brain tubulin (bovine) (UniProt P81947)
[11] = molecular target: microtubule associated protein (MAP)-rich bovine brain tubulin (bovine) (UniProt P81947); experiment: 100 µM non-radiolabeled Probe 1 against [3H]-Probe 1, tubulin: radiolabeled probe 2.5:0.25
[12] = molecular target: microtubule associated protein (MAP)-rich bovine brain tubulin (bovine) (UniProt P81947); experiment: 100 µM non-radiolabeled Probe 1 against 0.25 µM [3H]-Probe 1 photolabeling of tubulin, room temperature
[13] = molecular target: microtubule associated protein (MAP)-rich bovine brain tubulin (bovine) (UniProt P81947); experiment: 100 µM non-radiolabeled Probe 1 against 0.25 µM [3H]-Probe 1 photolabeling of tubulin, 37° C.
[14] = molecular target: microtubule associated protein (MAP)-rich bovine brain tubulin (bovine) (UniProt P81947); experiment: 100 µM non-radiolabeled Probe 1 against [3H]-Probe 1, tubulin: radiolabeled probe 2.5:2.5
[15] = molecular target: microtubule associated protein (MAP)-rich bovine brain tubulin (bovine) (UniProt P81947); experiment: change of fluorescence of rhodamine-labeled tubulin
[16] = molecular target: microtubule associated protein (MAP)-rich bovine brain tubulin (bovine) (UniProt P81947); experiment: 100 µM non-radioactive Probe 2 against 0.25 µM [3H]-Probe 2 photolabeling of tubulin, room temperature
[17] = Room Temp., 2.5 μM tubulin, 0.25 μM radiolabeled Probe 1, 100 μM competitor
[18] = room temperature, 2.5 μM tubulin, 0.25 μM radiolabeled Probe 1
[19] = room temperature, 400-fold molar excess (100 μM) competitor, 2.5 μM tubulin, 0.25 μM radiolabeled Probe 1
[20] = 100 μM competitor, 2.5 μM tubulin, 0.25 μM [3H]-Probe 2, room temperature

Probe 1 photolabeling of tubulin (% of no-competitor control) (bovine brain tubulin [1]; 37° C., 100 μM competitor)	Probe 1 photolabeling of tubulin (% of no-competitor control) (bovine brain tubulin [1]; [17]) [%]	reduction of Probe 1 photolabeling of tubulin (bovine brain tubulin [1]; [19])	Kd [8]	tubulin polymerization (% inhibition) [10] [%]	Molecule	protection of α-tubulin from subtilisin cleavage (α-tubulin)	inhibition of Probe 2 labeling of tubulin (tubulin [2]; [20]) [%]	protein recovered in pellet fractions (tubulin aggregation) (tubulin [3])	also measured
					Nc1nc2c(ncn2[C@@H]2O[C@H](COP(=O)(O)OP(=O)(O)OP(=O)(O)O)[C@@H](O)[C@H]2O)c(=O)[nH]1 [GTP, guanosine-5′-triphosphate]				effect on incorporation of Probe 1 into tubulin (bovine brain tubulin [1]; pre-incubation with between 0 and 100 μM): did not significantly inhibit incorporation
173 ± 7%	83 ± 41	almost no effect			CC(=O)O[C@H]1C(=O)[C@@]2(C)[C@H]([C@H](OC(=O)c3ccccc3)[C@]3(O)C[C@H](OC(=O)[C@H](O)[C@@H](NC(=O)c4ccccc4)c4ccccc4)C(C)=C1C3(C)C)[C@]1(OC(C)=O)CO[C@@H]1C[C@@H]2O [Paclitaxel]	unable to cleave α-tubulin even after 60 minutes		significant amount of protein was recovered	enhancement of Probe 1 photolabeling of tubulin (bovine brain tubulin [1]; 37° C.): 73%; Probe 2 photolabeling, % of the control value (tubulin [2]; [20]): 113%; enhancement of Probe 2 photolabeling (tubulin [2]; higher concentrations of competitor): this effect was lost
					CN[C@H](C(=O)N[C@H](C(=O)N(C)[C@H](/C=C(\C)C(=O)O)C(C)C)C(C)(C)c1ccc(C(=O)c2ccccc2)cc1)C(C)(C)c1ccccc1 [Probe 2, N,β,β-trimethyl-L-phenylalanyl-4-benzoyl-N-[(1S,2E)-3-carboxy-1-isopropyl-2-butenyl]-N,β,β-trimethyl-L-phenylalaninamide]		12		Kd (bovine brain tubulin [4]; Table 1, binding to bovine brain tubulin, read-out: KD): 1100 to 6000 nM; KD relative to KD of HTI-286 (bovine brain tubulin [4]; fluorescence method): approximately 6 fold; Kd (bovine brain tubulin [4]; rhodamine-labeled tubulin, 90 minutes pre-incubation, read-out: apparent binding constant (KD), fluorescence method): 3600 nM; IC50 (KB cells; 72 hours): 22.4 ± 0.7 nM; IC50 (KB cells; Homo sapiens, KB, 72 h): 22 nM; inhibition at 0.3 µM (bovine MAP-rich tubulin): 69%
52 ± 0.5%	28 ± 1	approximately 72%			CC[C@]1(O)C[C@@H]2CN(CCc3c([nH]c4ccccc34)[C@@](C(=O)OC)(c3cc4c(cc3OC)N(C)[C@H]3[C@@](O)(C(=O)OC)[C@H](OC(C)=O)[C@]5(CC)C=CCN6CC[C@]43[C@@H]65)C2)C1 [Vinblastine]	unable to cleave α-tubulin even after 60 minutes	64	significant amount of protein was recovered	reduction of Probe 1 photolabeling of tubulin (bovine brain tubulin [1]; 37° C.): about 50%; IC50 (bovine brain tubulin [1]; [18]): 22000 nM
			400 nM and 800 nM	87.5	HTI-286 (N,β,β-trimethyl-L-phenylalanyl-N1-[(1S,2E)-3-carboxy-1-isopropylbut-2-enyl]-N1,3-dimethyl-L-valinamide trifluoroacetate) (peptide)				percent inhibition of Probe 2 labeling (so in the source) [5]: 45%; Inhibition (%) (labeling against control = 100) [6]: 27%; Inhibition (%) (labeling against control = 100) [7]: 47%; percent inhibition of Probe 1 incorporation [9]: > 50%
			800 nM	88	Probe 1 (4-benzoyl-N,β,β-trimethyl-L-phenylalanyl-N1-[(1S,2E)-3-carboxy-1-isopropylbut-2-enyl]-N1,3-dimethyl-L-valinamide) (peptide)				percent inhibition of tubulin labeling [11]: 93%; Inhibition (%) (labeling against control = 100) [12]: 12%; Inhibition (%) (labeling against control = 100) [13]: 24%; percent inhibition of tubulin labeling [14]: 82%
			1100 nM and 6000 nM	69	Probe 2 (N,β,β-trimethyl-L-phenylalanyl-4-benzoyl-N-[(1S,2E)-3-carboxy-1-isopropyl-2-butenyl]-N,β,β-trimethyl-L-phenylalaninamide) (peptide)				fold KD against HTI-286 [15]: 6 fold; percent inhibition of Probe 2 labeling (so in the source) [16]: 12%

Molecule	Probe 1 photolabeling of tubulin (% of no-competitor control) (bovine brain tubulin [1]; 37° C., 100 μM competitor)	Probe 1 photolabeling of tubulin (% of no-competitor control) (bovine brain tubulin [1]; [17]) [%]	reduction of Probe 1 photolabeling of tubulin (bovine brain tubulin [1]; [19])	Kd [8]	tubulin polymerization (% inhibition) [10] [%]	protection of α-tubulin from subtilisin cleavage (α-tubulin)	inhibition of Probe 2 labeling of tubulin (tubulin [2]; [20]) [%]	protein recovered in pellet fractions (tubulin aggregation) (tubulin [3])	also measured
CC[C@H](C)[C@@H]([C@@H](CC(=O)N1CCC[C@H]1[C@H](OC)[C@@H](C)C(=O)N[C@@H](Cc1ccccc1)c1nccs1)OC)N(C)C(=O)[C@@H](NC(=O)[C@H](C(C)C)N(C)C)C(C)C [Dolastatin-10]	26^† %	13 ± 3	approximately 87%			unable to cleave α-tubulin even after 60 minutes	27	significant amount of protein was recovered	reduction of Probe 1 photolabeling of tubulin (bovine brain tubulin [1]; 37° C.): about 75%; IC50 (bovine brain tubulin [1]; [18]): 5000 nM
